Experimental data from US9745346B2, “Antimicrobial peptides and their application” (INFINITEC ACTIVOS S.L., priority 2014, dated 2017).
≈ marks a conversion by molar mass, not a printed value. *1 amine or outer side, *2 acyl side, *3 side chain or, on linkers, in order; H or OH if unused. Where a SMILES comes first, the peptide text is derived from it. The star is where a group is joined. NH(CH2)3(OCH2CH2)2O(CH2)3NH = C(CN[*:1])COCCOCCOCCCN[*:2]; Palmitoyl = CCCCCCCCCCCCCCCC(=O)*

What was measured:
LPS from E. Coli 055:B5 = assay: LPS-neutralizing activity, chromogenic Limulus Amebocyte Lysate (LAL) test; type: biochemical; settings: LPS 100 pg/mL, 45 min at 37° C., read-out: LPS-neutralization activity IC50 ± SD
Procedure: All solutions used in the LPS-neutralizing activity assay were tested to ensure they were endotoxin-free and material was sterilized by heating 3 h at 180° C. LPS from E. Coli 055:B5 and Polymyxin B were purchased from Sigma. LPS-neutralizing activity was measured using the chromogenic Limulus Amebocyte Lysate (LAL) test 40 following the manufacturer's instructions (Cambrex). LAL reagent contains a clottable protein that is activated in the presence of non-neutralized LPS and is an extremely sensitive indicator of the presence of endotoxin. When activated, this enzyme catalyses the release of p-nitroaniline (pNA) from the colorless chromogenic substrate Ac-Ile-Glu-Ala-Arg-pNA. The pNA released was measured photometrically at 405 nm in a Rosys Anthos 2010 microtiter plate reader (Tecnomara AG, Zurich, Switzerland). Peptides were incubated at a range of concentrations (200 to 0.001 μM) with LPS (100 pg/mL) in a 96-well microtiter for 45 min at 37° C. Polymyxin B (10 μg/mL) was used as positive control. LAL (12.5 μL) was added to start the reaction at 37° C. After 16 min, non-neutralized LPS was detected after a 10 min incubation with the chromogenic substrate (25 μ) Acetic acid (25% v/v final concentration) was added to stop the reaction and the absorbance was monitored at 405 nm in a Multiskan Ascent microtiter plate reader (ThermoLabsystems). IC50 (the concentration necessary to in vitro neutralize 50% of LPS) values were determined by a serial dilution assay using 100 pg/mL of LPS and a range of peptide concentrations as mentioned above.

Neurospora crassa = type: cell-based
Procedure: (§1) For this essay, diluted spores kept at −80° C. were used (fresh ones in the case of de Saprolegnia sp.), 1×10^4 spores/ml at the specific media for every fungi. 10 μg/ml of tetracycline were added to avoid bacterial action. […] of peptide solution plus […] of spore solution alongside the adequated media are added to a 96 wells microplaque. As a positive control a culture of the spores at the same concentration than the assay but without peptide. The MICs were defined as the lowest concentrations of peptides at which total inhibition of growth is observed and no change in optical density at 595 nm occurred between the measures obtained at t0 and tf.

Saprolegnia sp = type: cell-based
Procedure: as §1

Fusarium oxysporum = type: cell-based
Procedure: as §1

in vitro = type: cell-based; settings: human
Procedure: As a safety test for the peptides of the present invention the hemolytic activity was determined by using human erythrocytes (RBCs).
The assays were carried out in 96-well flat-bottom plates against a 0.25% RBC suspension as described elsewhere (Blondelle, S. E., L. R. Simpkins, E. Pérez-Payá, and R. A. Houghten. 1993. Influence of tryptophan residues on melitin's hemolytic activity. Biochim. Biophys. Acta 1202:331-336.).
In brief, peptide mixtures were added to the RBC solution at concentrations that varied from 500 to 4 μg/mL in serial twofold dilutions. Following incubation at 37° C. for 1 hour, the plates were centrifuged at 2.800 rpm for 5 min. The supernatant was separated from the pellet, an its optical density at 414 nm was measured. The hemolytic dose to lyse 50% of RBCs (IC50) was calculated by using the sigmoidal curve-fitting software Graphpad.

Enterobacter hydrophila = settings: 21 h
Procedure: (§2) Minimum inhibitory concentration (MIC) is the lowest concentration of an antimicrobial that will inhibit the growth occurred between time zero and […].
(§3) The MIC of peptides of examples 1, 2 and 3 was determined using gram negative bacteria (Escherichia Coli, Vibrio angillarum, Vibrio ordalii, Enterobacter aerogenes, Aeromonas hydrophila, Vibrio parahemolyticus, Bacillus Oleronius and Salmonella tiphy) and gram positive bacteria (Bacillus megaterium, Micrococcus luteus, Staphylococcus aureus and Staphylococcus epidermidis).
(§4) To initiate the exponential phase of bacterial growth prior to the assay, a sample of each bacteria type was allowed to grow overnight at 37° C. in Mueller-Hinton broth and incubated at 37° C. MRSA (Methicillin Resistant Staphylococcus aureus) was grown at 35° C. in cation-adjusted MH broth.
(§5) A final concentration of 1×10^5 CFU/ml was used in all assays. The assays were carried out in 96-well flat-bottom plates. Bacterial suspension in 2× concentrated broth was added to the different peptides at concentrations that varied from 2.500 to 1 μ/mL in H2O in serial twofold dilutions (Time t0). The plates were then incubated for 21 h (Time tf) at 37° C. […] The concentration necessary to inhibit 50% bacterial growth (IC50) could be by using sigmoidal curve-fitting software.

Micrococcus luteus = settings: 21 h
Procedure: as §2, §3, §4, §5

Staphylococcus aureus = settings: 21 h
Procedure: as §2, §3, §4, §5

Vibro ordalii = settings: 21 h
Procedure: as §2, §3, §4, §5

E. Coli = settings: 21 h
Procedure: as §2, §3, §4, §5

Vibrio angillarum = settings: 21 h
Procedure: as §2, §3, §4, §5

[1] = system: Staphylococcus epidermidis; settings: 21 h
Procedure: as §2, §3, §4, §5

Bacillus oleronius = settings: 21 h
Procedure: as §2, §3, §4, §5

Salmonella tiphy = settings: 1×10^5 CFU/ml, 21 h at 37° C., optical density at 620 nm
Procedure: as §2, §3, §4, §5

Bacillus megaterium = settings: 21 h
Procedure: as §2, §3, §4, §5

Row | Molecule | IC50 (LPS from E. Coli 055:B5) [µM] | MIC, Neurospora crassa (Neurospora crassa) [µg/mL] | MIC, Saprolegnia sp (Saprolegnia sp) [µg/mL] | MIC, Fusarium oxysporum (Fusarium oxysporum) [µg/mL] | HC50 at 1 hour (in vitro) [µg/mL] | Gram negative bacteria MIC, Enterobacter hydrophila (Enterobacter hydrophila) [µg/mL] | Gram positive bacteria MIC, Micrococcus luteus (Micrococcus luteus) [µg/mL] | Gram positive bacteria MIC, Staphylococcus aureus (Staphylococcus aureus) [µg/mL] | Gram negative bacteria MIC, Vibro ordalii (Vibro ordalii) [µg/mL] | Gram negative bacteria MIC, E. Coli (E. Coli) [µg/mL] | Gram negative bacteria MIC, Vibrio angillarum (Vibrio angillarum) [µg/mL] | Gram positive bacteria MIC, Staphylococcus epidermidis [1] [µg/mL] | Gram negative bacteria MIC, Bacillus oleronius (Bacillus oleronius) [µg/mL] | Gram negative bacteria MIC, Salmonella tiphy (Salmonella tiphy) [µg/mL] | Gram positive bacteria MIC, Bacillus megaterium (Bacillus megaterium) [µg/mL]
1 | KWKAQK [compound 5, Ac-KWKAQK-NH2] | 47 ± 1.1 |  |  |  |  |  |  |  |  |  |  |  |  |  | 
2 | CC(=O)N[C@@H](CCCCN)C(=O)N[C@@H](C)C(=O)N[C@@H](CCC(N)=O)C(=O)N[C@@H](CCCCN)C(=O)N[C@@H](CCCNC(=N)N)C(=O)N[C@@H](Cc1ccccc1)C(N)=O [Example 1, Ac-KAQKRF-NH2] (Ac-KAQKRF-NH2) |  | 0.9 (≈ 1.1 µM) | 0.2 (≈ 0.245 µM) | 0.9 (≈ 1.1 µM) | > 500 | 14.2 | 6.0 | 11.7 | 10.2 | 10.8 | 31.2 | 11.4 | 11.9 | 11.7 | 13.7
3 | KISGKW [compound 3, Ac-KISGKW-NH2] | 96 ± 1.1 |  |  |  |  |  |  |  |  |  |  |  |  |  | 
4 | CCCCCCCCCCCCCCCC(=O)N[C@@H](CCCCN)C(=O)N[C@@H](C)C(=O)N[C@@H](CCC(N)=O)C(=O)N[C@@H](CCCCN)C(=O)N[C@@H](CCCNC(=N)N)C(=O)N[C@@H](Cc1ccccc1)C(N)=O [Example 2, Palm-KAQKRF-NH2] (Palmitoyl-KAQKRF-NH2) |  | 0.2 (≈ 0.197 µM) | 0.1 (≈ 0.0986 µM) | 0.5 (≈ 0.493 µM) | > 500 | 11.3 | 5.6 | 5.7 | 7.4 | 5.6 | 31.0 | 5.6 | 9.7 | 6.1 | 12.3
5 | IKISGKWKAQKRFLKM [compound 1, Ac-IKISGKWKAQKRFLKM-NH2] | 34 ± 1.3 |  |  |  |  |  |  |  |  |  |  |  |  |  | 
6 | IKISGK [compound 2, Ac-IKISGK-NH2] | 105 ± 1.2 |  |  |  |  |  |  |  |  |  |  |  |  |  | 
7 | AQKRFL [compound 6, Ac-AQKRFL-NH2] | 46 ± 1.1 |  |  |  |  |  |  |  |  |  |  |  |  |  | 
8 | CCCCCCCCCCCCCCCC(=O)N[C@@H](CCCCN)C(=O)N[C@@H](C)C(=O)N[C@@H](CCC(N)=O)C(=O)N[C@@H](CCCCN)C(=O)N[C@@H](CCCNC(=N)N)C(=O)N[C@@H](Cc1ccccc1)C(=O)NCCCOCCOCCOCCCN [Example 3, Palm-KAQKRF-NH—(CH2)3—(OCH2CH2)3—CH2—NH2] (Palmitoyl-KAQKRF-{NH(CH2)3(OCH2CH2)2O(CH2)3NH}) |  | 0.3 (≈ 0.246 µM) | 0.1 (≈ 0.0821 µM) | 0.4 (≈ 0.329 µM) | > 500 | 11.6 | 5.5 | 5.5 | 8.2 | 5.5 | 30.0 | 5.8 | 8.0 | 5.8 | 12.1
9 | SGKWKA [compound 4, Ac-SGKWKA-NH2] | 85 ± 1.4 |  |  |  |  |  |  |  |  |  |  |  |  |  | 
